In PubChem BioAssay (NCI) one finds GI50 and TGI data, which are given here for 13 compounds.

Some test systems named below: DU-145 prostate; RXF 393 renal; HCC-2998 colon; SR leukemia; M14 melanoma; 786-0 renal; LOX IMVI melanoma; HT29 colon; U251 CNS; K-562 leukemia.
Holding throughout (assay): NCI anticancer screen, dose series, 48 h

Structures are written as SMILES. Where “and” joins values, the source holds several entries; their conditions need not be identical. Equal entries are not always repeated.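 96-well plates; 48 h exposure; 5 concentrations. Endpoints by linear interpolation between flanking doses. Not reached: highest tested concentration assigned. At the GI50, growth is halved. At the TGI there is no net growth.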

On to `Cc1nnc([S-])s1.[Au+].c1ccc([PH+](c2ccccc2)c2ccccc2)cc1`, for which the GI50 in the test on DU-145 prostate was 1.68 µM; in the test on RXF 393 renal it was 1.26 µM; in the test on HCC-2998 colon, 1.83 µM; with SR leukemia, 1.67 µM; with M14 melanoma, 1.62 µM; with 786-0 renal, 1.78 µM. Also, the GI50 in the test on LOX IMVI melanoma is 1.44 µM. Besides, the TGI with DU-145 prostate was 3.23 µM; with RXF 393 renal it was 2.53 µM; with HCC-2998 colon it was 3.36 µM; in the test on SR leukemia it was greater than 100 µM; in the test on M14 melanoma, 3.56 µM; with 786-0 renal, 3.32 µM. In the test with LOX IMVI melanoma, this compound came in with a TGI of 2.82 µM.
Consider `N#Cc1c2c(c(N=[N+]=[N-])n3c1nc1ccccc13)CCCC2`, for which the TGI with RXF 393 renal was 3.19 µM; in the test on HCC-2998 colon, 25.8 µM; in the test with HT29 colon, 3.77 µM; in the test with SR leukemia, greater than 100 µM; with U251 CNS it was 10.3 µM; in the test on M14 melanoma, 3.48 µM. The TGI with 786-0 renal was 3.53 µM; in the test on K-562 leukemia, 8.21 µM; in the test with LOX IMVI melanoma, 3.52 µM.
In the case of `NC(Cc1nn[nH]n1)C(=O)O` (configuration not stated), the TGI in the test on DU-145 prostate, with RXF 393 renal, with HT29 colon, in the test with SR leukemia, in the test with U251 CNS and in the test on M14 melanoma was greater than 100 µM throughout. Also, the TGI with 786-0 renal, with K-562 leukemia and in the test with LOX IMVI melanoma was greater than 100 µM throughout.
Consider `Brc1ccc2c(c1)C1(c3cc(Br)ccc3-2)c2cc(Br)ccc2-c2ccc(Br)cc21`, for which the TGI in the test on RXF 393 renal, in the test on HCC-2998 colon, in the test with HT29 colon, in the test with SR leukemia, in the test on U251 CNS and in the test on M14 melanoma was greater than 100 µM throughout. In addition, the TGI in the test on 786-0 renal, in the test on K-562 leukemia and in the test on LOX IMVI melanoma was greater than 100 µM in each case.
Consider `O=C1c2c(O)cccc2C(C(=O)CCCCC(=O)C2c3cccc(O)c3C(=O)c3c(O)cccc32)c2cccc(O)c21`, for which the TGI is 1.81 µM in the test with DU-145 prostate; 2.63 µM and 3.14 µM in the test on HCC-2998 colon; 1.67 µM and 5.67 µM with HT29 colon; 25 µM and 2.87 µM in the test on SR leukemia; 1.01 µM and 2.22 µM in the test on U251 CNS; 2.54 µM and 5.03 µM in the test with M14 melanoma. Moreover, the TGI was 5.53 µM and 10.7 µM with 786-0 renal; 7.66 µM and 2.49 µM in the test on K-562 leukemia; 2.74 µM and 5.08 µM in the test with LOX IMVI melanoma. Further, the GI50 with HCC-2998 colon was 1.07 µM; with HT29 colon it was 1.77 µM; with SR leukemia, 1.41 µM; in the test on U251 CNS, 1.02 µM; with M14 melanoma it was 1.75 µM; with 786-0 renal, 4.83 µM. Further, the figures for the GI50 in the test on K-562 leukemia and in the test with LOX IMVI melanoma were 1.21 µM and 1.56 µM, respectively.
`Oc1cccc(-c2nc3ccccc3s2)c1`: the TGI in the test with DU-145 prostate was greater than 100 µM; in the test with RXF 393 renal it was greater than 100 µM; with HT29 colon, 42.9 µM; with SR leukemia it was greater than 100 µM; with U251 CNS, greater than 100 µM; in the test with M14 melanoma, 60.4 µM. The TGI was greater than 100 µM in the test on 786-0 renal, greater than 100 µM with K-562 leukemia and 77 µM in the test on LOX IMVI melanoma.
As for `Cc1cc(N(CCC#N)S(=O)(=O)c2ccccc2)ccc1C=O`, the TGI with RXF 393 renal, in the test with HCC-2998 colon, in the test with HT29 colon, in the test on SR leukemia, in the test on U251 CNS and in the test on M14 melanoma was greater than 100 µM in each case. For the same compound, the TGI in the test on 786-0 renal, in the test on K-562 leukemia and in the test on LOX IMVI melanoma was greater than 100 µM in each case.
For the compound `O=C(CCCCCCCCCCc1ccccc1)c1c(O)cccc1O`, the TGI in the test with RXF 393 renal turned out to be 39.9 µM; with HCC-2998 colon, 44.3 µM; in the test on HT29 colon it was 88 µM; in the test with SR leukemia, 63.4 µM; in the test with U251 CNS it was 38.1 µM; in the test on M14 melanoma, 35.6 µM. The TGI worked out at 32.3 µM with 786-0 renal, 58.7 µM with K-562 leukemia and 72.9 µM with LOX IMVI melanoma.
With `C[C@@H](NC(=O)Cc1cc(F)cc(F)c1)C(=O)N[C@@]1(C)N=C(c2ccccc2)c2ccccc2N(C)C1=O`, the GI50 in the test on DU-145 prostate is 30.2 µM; with RXF 393 renal, 30.7 µM; in the test on HT29 colon, 49.4 µM; with SR leukemia it was 2.5 µM; in the test with U251 CNS it was greater than 84.8 µM; in the test on M14 melanoma, 26 µM. For the same compound, the GI50 is greater than 100 µM in the test on 786-0 renal, 32.6 µM in the test with K-562 leukemia and 45.7 µM in the test on LOX IMVI melanoma. Further, the TGI in the test on DU-145 prostate is greater than 100 µM; in the test with RXF 393 renal it was greater than 100 µM; with HT29 colon it was greater than 100 µM; in the test with SR leukemia it was greater than 22.7 µM; in the test on U251 CNS, greater than 100 µM; in the test on M14 melanoma it was greater than 86.6 µM. For the same compound, the TGI in the test with 786-0 renal was greater than 100 µM; with K-562 leukemia, greater than 94.1 µM; with LOX IMVI melanoma it was greater than 100 µM.
`CC1CCC(O)C(C(O)CC2CC(=O)N(C)C(=O)C2)C1` (configuration not stated): the TGI in the test on RXF 393 renal, in the test with HCC-2998 colon, in the test with HT29 colon, in the test on SR leukemia, with U251 CNS and with M14 melanoma was greater than 100 µM each time. Also, the TGI with 786-0 renal, with K-562 leukemia and with LOX IMVI melanoma was greater than 100 µM in each case.
As for `O=C1c2ccccc2-c2cc3ccccc3c(=O)n21`, the TGI in the test with DU-145 prostate, with HCC-2998 colon, in the test with HT29 colon, with SR leukemia, in the test with M14 melanoma and in the test with 786-0 renal was greater than 100 µM throughout. Besides, the TGI with K-562 leukemia and with LOX IMVI melanoma was greater than 100 µM each time.
`COC(=O)C(CC=O)C(=O)C(=O)Nc1cccc(C(F)(F)F)c1` (configuration not stated): the TGI in the test with RXF 393 renal, in the test on HCC-2998 colon, in the test on HT29 colon, in the test with SR leukemia, with U251 CNS and in the test on M14 melanoma was greater than 100 µM in each case. Also, the TGI with 786-0 renal, with K-562 leukemia and with LOX IMVI melanoma was greater than 100 µM throughout.
As to `c1ccc(SCCCC(Sc2ccccc2)Sc2ccccc2)cc1`, the TGI in the test with RXF 393 renal, with HCC-2998 colon, with SR leukemia, with U251 CNS, with M14 melanoma and in the test on 786-0 renal was greater than 100 µM in each case. Moreover, the TGI in the test with K-562 leukemia and in the test on LOX IMVI melanoma was greater than 100 µM in each case.
